Experimental data published in the supplement of paper PMC11781733.
Structures can show the parent of a compound that is named as a salt.

Legend:
Details in all cases: exposure time: 15 min to 3 h acute
Dugesia japonica [1] = assay: anxiety (time in outer well region) vs vehicle (% change vs vehicle); higher = higher incidence or increase relative to vehicle control
Summary of the method: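 Dugesia japonica planarians fasted for 5–7 days were placed one per well in 200 μL in sealed 48-well plates and exposed to at least 5 concentrations, with n = 24 per concentration in technical triplicates, then screened within 15 minutes–3 hours. Object tracking in MATLAB or Python measured the time each worm spent in the outer portion of the well, and worms that crawled out were excluded. Each response was divided by, or reduced by, the plate vehicle median and multiplied by 100. The reported value is the median of these normalized responses.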

Dugesia japonica [2] = assay: resting fraction in blue light vs vehicle (difference in fraction x100 vs vehicle); higher = higher incidence or increase relative to vehicle control
Summary of the method: (§1)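 In technical triplicate, eight intact, fasted Dugesia japonica per concentration per plate were tracked automatically to score the resting fraction in the dark or under blue light. Each worm had its own well of a 48-well plate containing 200 μL and was tested 15 min to 3 h after exposure in 0.5% DMSO or water vehicle. Reported values are medians of each worm's difference from the plate's vehicle median multiplied by 100, leaving out worms that crawled out.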

Dugesia japonica [3] = assay: contracted body shape incidence (% planarians (vehicle-normalised)); higher = higher incidence or increase relative to vehicle control
Summary of the method: (§2)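 Body shape incidence, for a given shape or for any abnormal shape, is reported ×100 and normalised to vehicle controls on the same plate, with negative values set to 0. D. japonica planarians fasted for 5–7 days were placed one per well in 200 μL in sealed 48-well plates and exposed to at least 5 concentrations. Within 15 minutes–3 hours of exposure, a researcher scored contraction, C-shape, corkscrew and hyperkinesis manually and blind, excluding worms that crawled out.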

Dugesia japonica [4] = assay: speed second 30 s blue light vs vehicle (% change vs vehicle); higher = higher incidence or increase relative to vehicle control
Summary of the method: (§3)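 Crawling speed in the dark or during blue-light periods was measured by automated tracking of intact, fasted Dugesia japonica, one per well of a 48-well plate in 200 μL. Worms were tested 15 min to 3 h after exposure in 0.5% DMSO or water vehicle. Eight worms per concentration per plate were run in technical triplicate (n = 24). Each worm was normalised to the plate's vehicle median, and the value is the median percent change; worms that crawled out were excluded.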

Dugesia japonica [5] = assay: speed in dark vs vehicle (% change vs vehicle); higher = higher incidence or increase relative to vehicle control
Description: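 Adult asexual Dugesia japonica planarians (1 per well, 48-well plate, n=24 over technical triplicates) were exposed acutely (15 min to 3 h) to each compound (0.5% DMSO or water vehicle) and screened on a robotic platform for crawl-out, stickiness, body shape, phototaxis, noxious-heat scrunching and locomotion endpoints. Binary endpoints are incidence rate x100 normalised to in-plate vehicle controls. Continuous endpoints are the median response normalised to the plate vehicle median, as % change or difference. Negative incidences after vehicle subtraction were set to 0.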

Dugesia japonica [6] = assay: hyperkinesis incidence (% planarians (vehicle-normalised)); higher = higher incidence or increase relative to vehicle control
Summary of the method: as §2

Dugesia japonica [7] = assay: corkscrew incidence (% planarians (vehicle-normalised)); higher = higher incidence or increase relative to vehicle control
Summary of the method: as §2

Dugesia japonica [8] = assay: speed first 30 s blue light vs vehicle (% change vs vehicle); higher = higher incidence or increase relative to vehicle control
Summary of the method: as §3

Dugesia japonica [9] = assay: loss of heat-induced scrunching incidence (% planarians (vehicle-normalised)); higher = higher incidence or increase relative to vehicle control
Summary of the method: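 Planarians of the species D. japonica, fasted for 5–7 days, were placed singly in wells of sealed 48-well plates in 200 μL and exposed to at least 5 concentrations, 24 worms per concentration in technical triplicates. Scrunching in response to a noxious heat stimulus was tested within 15 minutes–3 hours, and any worm that crawled out was excluded. The reported figure is the incidence of non-scrunching worms, normalised to vehicle controls on the same plate. This incidence is given ×100, with negatives set to 0.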

Dugesia japonica [10] = assay: loss of phototaxis incidence (% planarians (vehicle-normalised)); higher = higher incidence or increase relative to vehicle control
Summary of the method: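 For each concentration, eight intact, fasted Dugesia japonica per plate were placed singly in wells of a 48-well plate in 200 μL and run in technical triplicate (n = 24). Testing took place 15 min to 3 h after exposure in 0.5% DMSO or water vehicle. Loss of phototaxis was recorded as present or absent by automated object tracking and expressed as an incidence rate normalised to in-plate vehicle controls. For this rate, ×100 was applied, negatives were set to 0, and worms that crawled out were excluded.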

Dugesia japonica [11] = assay: crawl-out incidence (% planarians); higher = higher incidence or increase relative to vehicle control
Description: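 Adult asexual Dugesia japonica planarians (1 per well, 48-well plate, n=24 over technical triplicates) were exposed acutely (15 min to 3 h) to each compound (0.5% DMSO or water vehicle) and screened on a robotic platform for crawl-out, stickiness, body shape, phototaxis, noxious-heat scrunching and locomotion endpoints. Binary endpoints are incidence rate x100. Continuous endpoints are the median response normalised to the plate vehicle median, as % change or difference. Negative incidences after vehicle subtraction were set to 0.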

Dugesia japonica [12] = assay: resting fraction in dark vs vehicle (difference in fraction x100 vs vehicle); higher = higher incidence or increase relative to vehicle control
Summary of the method: as §1

Dugesia japonica [13] = assay: stickiness incidence (% planarians (vehicle-normalised)); higher = higher incidence or increase relative to vehicle control
Summary of the method: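 In the Stickiness assay, fasted Dugesia japonica planarians were each placed in one well of a sealed 48-well plate containing 200 μL of solution, with 0.5% DMSO or water as vehicle. Testing took place 15 min–3 h after exposure to half- or quarter-log concentration series. Stickiness was recorded as a binary endpoint, and its incidence was expressed relative to in-plate vehicle incidence after pooling technical triplicates and removing worms that crawled out. Negative values were set to 0 and all values were multiplied by 100.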

Dugesia japonica [14] = assay: noxious heat displacement strength vs vehicle (% change vs vehicle); higher = higher incidence or increase relative to vehicle control
Summary of the method: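 Each intact, fasted Dugesia japonica was tested alone in a well of a 48-well plate in 200 μL, 15 min to 3 h after exposure in 0.5% DMSO or water vehicle. Eight worms per concentration per plate were used in technical triplicate (n = 24). Displacement strength under noxious heat came from the scrunching assay with automated object tracking and is given as the median percent change against the plate's vehicle median, excluding worms that crawled out.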

Dugesia japonica [15] = assay: total locomotor bursts minus vehicle (bursts difference vs vehicle); higher = higher incidence or increase relative to vehicle control
Summary of the method: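 Fasted Dugesia japonica planarians, one per well of a sealed 48-well plate in 200 μL solution, were tested 15 min–3 h after exposure to half- or quarter-log concentration series. The vehicle was 0.5% DMSO or water. Total locomotor bursts, an unstimulated behaviour, came from image-based object tracking, with technical triplicates totalling n = 24. Each planarian's value had the plate vehicle-control median subtracted, without ×100 scaling. The value is the median normalised response, and crawled-out worms were excluded.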

Dugesia japonica [16] = assay: any abnormal body shape incidence (% planarians (vehicle-normalised)); higher = higher incidence or increase relative to vehicle control
Summary of the method: as §2

Dugesia japonica [17] = assay: C-shape incidence (% planarians (vehicle-normalised)); higher = higher incidence or increase relative to vehicle control
Summary of the method: as §2

Dugesia japonica [18] = assay: pharynx extrusion incidence (% planarians (vehicle-normalised)); higher = higher incidence or increase relative to vehicle control
Summary of the method: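 Fasted, intact Dugesia japonica were scored manually and blind for pharynx extrusion as a body-shape category, with the incidence normalised to in-plate vehicle controls. Testing took place 15 min to 3 h after exposure, one worm per well in 200 μL of 0.5% DMSO or water vehicle, with eight worms per concentration per plate in triplicate (n = 24). Worms that crawled out were excluded, and negative values were set to 0.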

Compound | anxiety (Dugesia japonica [1]) | resting fraction in blue light (Dugesia japonica [2]) | contracted body shape incidence (Dugesia japonica [3]) | speed second 30 s blue light (Dugesia japonica [4]) | speed in dark (Dugesia japonica [5]) | hyperkinesis incidence (Dugesia japonica [6]) | corkscrew incidence (Dugesia japonica [7]) | speed first 30 s blue light (Dugesia japonica [8]) | loss of heat-induced scrunching incidence (Dugesia japonica [9]) | loss of phototaxis incidence (Dugesia japonica [10]) | crawl-out incidence (Dugesia japonica [11]) | resting fraction in dark (Dugesia japonica [12]) | stickiness incidence (Dugesia japonica [13]) | noxious heat displacement strength (Dugesia japonica [14]) | total locomotor bursts minus vehicle (Dugesia japonica [15]) | any abnormal body shape incidence (Dugesia japonica [16]) | C-shape incidence (Dugesia japonica [17]) | pharynx extrusion incidence (Dugesia japonica [18])
CN1CCN(C2=Nc3cc(Cl)ccc3Nc3ccccc32)CC1 [clozapine] (1 µM) | -1.98 | 36.4 | 4.17 | -79.8 | -73.5 | 8.33 | 0 | -82 | 4.17 | 8.33 | 0 | 55.3 | 4.17 | -43.5 | 38.8 | 8.33 | 0 | 0
CN1C(=O)CN=C(c2ccccc2)c2cc(Cl)ccc21 [diazepam] (1 µM) | 2.23 | -0.17 | 0 | -4.48 | 23.3 | 0 | 0 | 30.1 | 12.5 | 8.33 | 0 | -6.08 | 4.17 | -18.8 | -4.5 | 0 | 0 | 0
O=C(CCCN1CC=C(n2c(=O)[nH]c3ccccc32)CC1)c1ccc(F)cc1 [droperidol] (1 µM) | 11.5 | 9.81 | 0 | -69.5 | -60.7 | 12.5 | 4.17 | -63.6 | 58.3 | 16.7 | 0 | 3.77 | ≤ 0 | -54.4 | 11.8 | 16.7 | 0 | 0
CN(C)CCC[C@@]1(c2ccc(F)cc2)OCc2cc(C#N)ccc21 [escitalopram] (10 µM) | 1.04 | 0 | 0 | 16 | 22.6 | 0 | 0 | 23.1 | 8.33 | ≤ 0 | 0 | -4.34 | 16.7 | -2.51 | 0.5 | 0 | 0 | 0
CN1CC(=O)N=C1NC(=O)Nc1cccc(Cl)c1 [fenobam] (56.2 µM) | 9.05 | 0 | 0 | -8.21 | -1.71 | 0 | 0 | -6.17 | ≤ 0 | 12.5 | 0 | -0.17 | ≤ 0 | -21.7 | -0.5 | 0 | 0 | 0
CNCCC(Oc1ccc(C(F)(F)F)cc1)c1ccccc1 (configuration not stated) [fluoxetine hydrochloride] (1 µM) | 6.17 | -1.64 | 0 | 14.9 | 33.6 | 0 | 0 | 33.5 | 8.33 | ≤ 0 | 0 | -9.67 | 4.17 | 12 | -7 | 0 | 0 | 0
O=C(CCCN1CCC(O)(c2ccc(Cl)cc2)CC1)c1ccc(F)cc1 [haloperidol] (1 µM) | 1.11 | 10.1 | 4.35 | -36.1 | -17.7 | 0 | 0 | -26.1 | ≤ 0 | 21.7 | 4.17 | 32.1 | ≤ 0 | -20.5 | 0 | 4.35 | 0 | 0
CN(C)CCCN1c2ccccc2CCc2ccccc21 [imipramine] (0.316 µM) | -0.7 | 1.3 | 4.17 | -12.2 | -16.2 | 0 | 0 | -17.6 | ≤ 0 | 4.17 | 0 | 5.24 | ≤ 0 | 23.7 | 5.25 | 8.33 | 0 | 0
Cc1ncc2n1-c1ccc(Cl)cc1C(c1ccccc1F)=NC2 [midazolam] (10 µM) | -4.77 | -0.5 | 0 | 6.88 | -4.66 | 8.33 | 0 | 12.7 | ≤ 0 | ≤ 0 | 0 | 0.667 | ≤ 0 | -18.8 | -1.5 | 8.33 | 0 | 0
Cc1cc2c(s1)Nc1ccccc1N=C2N1CCN(C)CC1 [olanzapine] (3.16 µM) | -4.66 | 34 | 0 | -75.2 | -69 | 54.2 | 0 | -79.2 | 45.8 | ≤ 0 | 4.17 | 51.2 | ≤ 0 | -37.1 | 41.2 | 58.3 | 8.33 | 0
CN1CCN(CCCN2c3ccccc3Sc3ccc(Cl)cc32)CC1 [prochloroperazine] (1 µM) | 9.41 | 5.37 | 0 | -13.4 | -31 | 4.35 | 0 | -22.6 | 26.1 | 4.35 | 4.17 | 7.43 | ≤ 0 | -10.7 | 10.5 | 4.35 | 0 | 0
CNCC[C@H](Oc1cccc2ccccc12)c1cccs1 [s-duloxetine] (1 µM) | 12.8 | 9.83 | 0 | -13.5 | 13.6 | 0 | 0 | 34.6 | 13 | 17.4 | 4.17 | -7.56 | 13 | -35.3 | 7 | 0 | 0 | 0
CN[C@H]1CC[C@@H](c2ccc(Cl)c(Cl)c2)c2ccccc21 [sertraline hydrochloride] (1 µM) | 5.35 | 0 | 0 | -15.7 | 0.19 | 12.5 | 0 | -11.7 | 4.17 | ≤ 0 | 0 | 5.44 | 8.33 | -12.6 | -2.5 | 12.5 | 0 | 0
CCCCNc1c(C(=O)OCC)c(C)nc2c1cnn2CC [tracazolate hydrochloride] (1 µM) | -16.4 | 0.18 | 0 | -8.21 | -16.4 | 0 | 0 | -20 | ≤ 0 | ≤ 0 | 0 | 1.34 | 8.33 | -26.2 | 3.25 | 0 | 0 | 0
